Data from patent US12570687B2, “Triterpenoid compounds, pharmaceutical compositions thereof, and their use for treating a nuclear receptor subfamily 4 group a member 1-mediated disease” (NUCMITO PHARMACEUTICALS COMPANY LIMITED, priority 2019, dated 2026).

Columns and labels:
Type in all cases: cell-based
[1] = test system: A375 (malignant melanoma); assay: MTT antiproliferative assay, A375; settings: Homo sapiens, A-375, A375, 10 μM, 48 or 72 h, read-out: inhibition of cell growth, A375
How it was run: (§1)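 Cells seeded at 2,000-5,000/well were treated with compound at 0.137 to 100 μM or a single 10 μM for 48 or 72 h at 37° C. MTT was added for a further 4 h, formazan dissolved in DMSO and absorbance read at 490 nm; viability was expressed relative to DMSO vehicle.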

HeLa (ovarian cancer) = assay: MTT antiproliferative assay, HeLa; settings: Homo sapiens, 48 or 72 h, read-out: inhibition of cell growth, HELA
How it was run: as §1

[2] = test system: A431 (epidermoid carcinoma); assay: MTT antiproliferative assay, A431; settings: Homo sapiens, A-431, A431, 10 μM, 48 or 72 h, read-out: inhibition of cell growth, A431
How it was run: as §1

[3] = test system: A549 (lung adenocarcinoma); assay: MTT antiproliferative assay, A549; settings: Homo sapiens, A549, 10 μM, 48 or 72 h, read-out: inhibition of cell growth, A549
How it was run: as §1

[4] = test system: MDA-MB-231 (breast cancer); assay: MTT antiproliferative assay, MDA-MB-231; settings: Homo sapiens, MDA-MB-231, 10 μM, 48 or 72 h, read-out: inhibition of cell growth, MDA-MB-231
How it was run: as §1

HepG2 (liver cancer) = assay: MTT antiproliferative assay, HepG2; settings: Homo sapiens, HepG2, 10 μM, 48 or 72 h, read-out: inhibition of cell growth, HepG2
How it was run: as §1

SW620 (colon cancer) = assay: MTT antiproliferative assay, SW620; settings: Homo sapiens, SW-620, SW620, 10 μM, 48 or 72 h, read-out: inhibition of cell growth, SW620
How it was run: as §1

CO[C@]1(C)C(=O)C(=O)C=C2C1=CC=C1[C@@]2(C)CC[C@@]2(C)[C@@H]3C[C@](C)(C(=O)NO)CC[C@]3(C)CC[C@]12C [Compound A45, (2R,4aS,6aS,9S,12bR,14aS,14bR)—N-Hydroxy-9-methoxy-2,4a,6a,9,12b,14a-hexamethyl-10,11-dioxo-1,2,3,4,4a,5,6,6a,9,10,11,12b,13,14,14a,14b-hexadecahydropicene-2-carboxamide]
inhibition at 10 µM [1]: 50 to 80% | inhibition at 10 µM (HeLa (ovarian cancer)): ≥ 80% | inhibition at 10 µM [2]: ≥ 80% | inhibition at 10 µM [3]: ≥ 80% | inhibition at 10 µM [4]: ≥ 80% | inhibition at 10 µM (HepG2 (liver cancer)): ≥ 80% | inhibition at 10 µM (SW620 (colon cancer)): 50 to 80%

CO[C@@]1(C)C2=CC=C3[C@@](C)(CC[C@@]4(C)[C@@H]5C[C@](C)(C(=O)O)CC[C@]5(C)CC[C@]34C)C2=CC2(O)OCCN=C21 (stereo partly drawn) [Compound A46, (2R,4aS,6aS,9S,14bR,16aS,16bR)-13a-hydroxy-9-methoxy-2,4a,6a,9,14b,16a-hexamethyl-2,3,4,4a,5,6,6a,9,11,12,13a,14b,15,16,16a,16b-hexadecahydro-1H-piceno[2,3-b][1,4]oxazine-2-carboxylic acid]
inhibition at 10 µM [1]: 30 to 50% | inhibition at 10 µM (HeLa (ovarian cancer)): ≥ 80% | inhibition at 10 µM [2]: ≥ 80% | inhibition at 10 µM [3]: 50 to 80% | inhibition at 10 µM [4]: 50 to 80% | inhibition at 10 µM (HepG2 (liver cancer)): ≥ 80% | inhibition at 10 µM (SW620 (colon cancer)): 50 to 80%

CO[C@@]1(C)C2=CC=C3[C@@](C)(CC[C@@]4(C)[C@@H]5C[C@](C)(C(=O)NO)CC[C@]5(C)CC[C@]34C)C2=CC2(O)OCCN=C21 (stereo partly drawn) [Compound A47, (2R,4aS,6aS,9S,14bR,16aS,16bR)—N,13a-dihydroxy-9-methoxy-2,4a,6a,9,14b,16a-hexamethyl-2,3,4,4a,5,6,6a,9,11,12,13a,14b,15,16,16a,16b-hexadecahydro-1H-piceno[2,3-b][1,4]oxazine-2-carboxamide]
inhibition at 10 µM [1]: 30 to 50% | inhibition at 10 µM (HeLa (ovarian cancer)): ≥ 80% | inhibition at 10 µM [2]: ≥ 80% | inhibition at 10 µM [3]: ≥ 80% | inhibition at 10 µM [4]: ≥ 80% | inhibition at 10 µM (HepG2 (liver cancer)): ≥ 80% | inhibition at 10 µM (SW620 (colon cancer)): 50 to 80%

CO[C@@]1(C)C2=CC=C3[C@@](C)(CC[C@@]4(C)[C@@H]5C[C@](C)(C(=O)O)CC[C@]5(C)CC[C@]34C)C2=CC(=NO)[C@@H]1O [Compound A50, (2R,4aS,6aS,9S,10S,12bR,14aS,14bR)-10-hydroxy-11-(hydroxyimino)-9-methoxy-2,4a,6a,9,12b,14a-hexamethyl-1,2,3,4,4a,5,6,6a,9,10,11,12b,13,14,14a,14b-hexadecahydropicene-2-carboxylic acid]
inhibition at 10 µM [1]: < 30% | inhibition at 10 µM (HeLa (ovarian cancer)): < 30% | inhibition at 10 µM [2]: < 30% | inhibition at 10 µM [3]: < 30% | inhibition at 10 µM [4]: < 30% | inhibition at 10 µM (HepG2 (liver cancer)): < 30% | inhibition at 10 µM (SW620 (colon cancer)): < 30%

CO[C@@]1(C)C2=CC=C3[C@@](C)(CC[C@@]4(C)[C@@H]5C[C@](C)(C(=O)O)CC[C@]5(C)CC[C@]34C)C2=CC(=O)C1=NNC(C)=O [Compound A51, (2R,4aS,6aS,9S,12bR,14aS,14bR)-10-(acetamidoimino)-9-methoxy-2,4a,6a,9,12b,14a-hexamethyl-11-oxo-1,2,3,4,4a,5,6,6a,9,10,11,12b,13,14,14a,14b-hexadecahydropicene-2-carboxylic acid]
inhibition at 10 µM [1]: < 30% | inhibition at 10 µM (HeLa (ovarian cancer)): < 30% | inhibition at 10 µM [2]: < 30% | inhibition at 10 µM [3]: < 30% | inhibition at 10 µM [4]: < 30% | inhibition at 10 µM (HepG2 (liver cancer)): < 30% | inhibition at 10 µM (SW620 (colon cancer)): < 30%

CO[C@@]1(C)C2=CC=C3[C@@](C)(CC[C@@]4(C)[C@@H]5C[C@](C)(C(=O)O)CC[C@]5(C)CC[C@]34C)C2=CC(=O)C1=NNC(=O)c1ccncc1 [Compound A52, (2R,4aS,6aS,9S,12bR,14aS,14bR)-9-Methoxy-2,4a,6a,9,12b,14a-hexamethyl-11-oxo-10-{[(pyridin-4-yl)formamido]imino}-1,2,3,4,4a,5,6,6a,9,10,11,12b,13,14,14a,14b-hexadecahydropicene-2-carboxylic acid]
inhibition at 10 µM [1]: < 30% | inhibition at 10 µM (HeLa (ovarian cancer)): < 30% | inhibition at 10 µM [2]: < 30% | inhibition at 10 µM [3]: < 30% | inhibition at 10 µM [4]: < 30% | inhibition at 10 µM (HepG2 (liver cancer)): < 30% | inhibition at 10 µM (SW620 (colon cancer)): < 30%

CO[C@]1(C)C(=O)C2(C=C3C1=CC=C1[C@@]3(C)CC[C@@]3(C)[C@@H]4C[C@](C)(C(=O)O)CC[C@]4(C)CC[C@]13C)OCCO2 [Compound A54, (4S,6bS,8aS,11R,12aR,12bS,14aR)-4-methoxy-4,6b,8a,11,12b,14a-hexamethyl-3-oxo-4,6b,7,8,8a,9,10,11,12,12a,12b,13,14,14a-tetradecahydro-3H-spiro[picene-2,2′-[1,3]dioxolane]-11-carboxylic acid]
inhibition at 10 µM [1]: < 30% | inhibition at 10 µM (HeLa (ovarian cancer)): < 30% | inhibition at 10 µM [2]: < 30% | inhibition at 10 µM [3]: < 30% | inhibition at 10 µM [4]: < 30% | inhibition at 10 µM (HepG2 (liver cancer)): < 30% | inhibition at 10 µM (SW620 (colon cancer)): < 30%

CO[C@@]1(C)C2=CC=C3[C@@](C)(CC[C@@]4(C)[C@@H]5C[C@](C)(C(N)=O)CC[C@]5(C)CC[C@]34C)C2=CC(=O)[C@@H]1O [Compound A55, (2R,4aS,6aS,9S,10R,12bR,14aS,14bR)-10-Hydroxy-9-methoxy-2,4a,6a,9,12b,14a-hexamethyl-11-oxo-1,2,3,4,4a,5,6,6a,9,10,11,12b,13,14,14a,14b-hexadecahydropicene-2-carboxamide]
inhibition at 10 µM [1]: 30 to 50% | inhibition at 10 µM (HeLa (ovarian cancer)): 50 to 80% | inhibition at 10 µM [2]: ≥ 80% | inhibition at 10 µM [3]: 50 to 80% | inhibition at 10 µM [4]: 50 to 80% | inhibition at 10 µM (HepG2 (liver cancer)): ≥ 80% | inhibition at 10 µM (SW620 (colon cancer)): ≥ 80%

CO[C@@]1(C)C2=CC=C3[C@@](C)(CC[C@@]4(C)[C@@H]5C[C@](C)(C(=O)N6CCOCC6)CC[C@]5(C)CC[C@]34C)C2=CC(=O)[C@@H]1O [Compound A56, (3R,4S,6bS,8aS,11R,12aR,12bS,14aR)-3-hydroxy-4-methoxy-4,6b,8a,11,12b,14a-hexamethyl-11-(morpholine-4-carbonyl)-4,6b,7,8,8a,9,10,11,12,12a,12b,13,14,14a-tetradecahydropicen-2(3H)-one]
inhibition at 10 µM [1]: 30 to 50% | inhibition at 10 µM (HeLa (ovarian cancer)): 50 to 80% | inhibition at 10 µM [2]: ≥ 80% | inhibition at 10 µM [3]: ≥ 80% | inhibition at 10 µM [4]: 50 to 80% | inhibition at 10 µM (HepG2 (liver cancer)): ≥ 80% | inhibition at 10 µM (SW620 (colon cancer)): ≥ 80%

CO[C@@]1(C)C2=CC=C3[C@@](C)(CC[C@@]4(C)[C@@H]5C[C@](C)(C(=O)NO)CC[C@]5(C)CC[C@]34C)C2=CC(=O)[C@@H]1O [Compound A57, (2R,4aS,6aS,9S,10R,12bR,14aS,14bR)—N,10-dihydroxy-9-methoxy-2,4a,6a,9,12b,14a-hexamethyl-11-oxo-1,2,3,4,4a,5,6,6a,9,10,11,12b,13,14,14a,14b-hexadecahydropicene-2-carboxamide]
inhibition at 10 µM [1]: 30 to 50% | inhibition at 10 µM (HeLa (ovarian cancer)): 50 to 80% | inhibition at 10 µM [2]: ≥ 80% | inhibition at 10 µM [3]: ≥ 80% | inhibition at 10 µM [4]: 50 to 80% | inhibition at 10 µM (HepG2 (liver cancer)): ≥ 80% | inhibition at 10 µM (SW620 (colon cancer)): ≥ 80%

CO[C@@]1(C)C2=CC=C3[C@@](C)(CC[C@@]4(C)[C@@H]5C[C@](C)(C(N)=O)CC[C@]5(C)CC[C@]34C)C2=CC(=O)/C1=C\C#N [Compound A59, (2R,4aS,6aS,9S,10Z,12bR,14aS,14bR)-10-(cyanomethylidene)-9-methoxy-2,4a,6a,9,12b,14a-hexamethyl-11-oxo-1,2,3,4,4a,5,6,6a,9,10,11,12b,13,14,14a,14b-hexadecahydropicene-2-carboxamide]
inhibition at 10 µM [1]: ≥ 80% | inhibition at 10 µM (HeLa (ovarian cancer)): ≥ 80% | inhibition at 10 µM [2]: ≥ 80% | inhibition at 10 µM [3]: ≥ 80% | inhibition at 10 µM [4]: ≥ 80% | inhibition at 10 µM (HepG2 (liver cancer)): ≥ 80% | inhibition at 10 µM (SW620 (colon cancer)): ≥ 80%

CO[C@@]1(C)C2=CC=C3[C@@](C)(CC[C@@]4(C)[C@@H]5C[C@](C)(C#N)CC[C@]5(C)CC[C@]34C)C2=CC(=O)[C@@H]1O [Compound A62, (2R,4aS,6aS,9S,10R,12bR,14aS,14bR)-10-hydroxy-9-methoxy-2,4a,6a,9,12b,14a-hexamethyl-11-oxo-1,2,3,4,4a,5,6,6a,9,10,11,12b,13,14,14a,14b-hexadecahydropicene-2-carbonitrile]
inhibition at 10 µM [1]: 30 to 50% | inhibition at 10 µM (HeLa (ovarian cancer)): < 30% | inhibition at 10 µM [2]: ≥ 80% | inhibition at 10 µM [3]: 30 to 50% | inhibition at 10 µM [4]: 30 to 50% | inhibition at 10 µM (HepG2 (liver cancer)): 30 to 50% | inhibition at 10 µM (SW620 (colon cancer)): ≥ 80%
